Entries after “also recorded” stand apart in the source; their conditions may differ. Read-outs that look alike come from different tables or passages of the source.
Legend:
Rat Paw Edema = test: carrageenan-induced hind paw edema method (anti-inflammatory activity); type: in vivo, Wistar albino rats; settings: for inhibition in vivo at 10 mg/kg: Rattus norvegicus, po; for inhibition in vivo at 10 mg/kg / anti-inflammatory activity (in words) / % Age Inhibition of Rat Paw Edema, 4 H: oral dose 10 mg/kg; for inhibition in vivo at 10 mg/kg / % Age Inhibition of Rat Paw Edema, 4 H: mean ± SEM; for anti-inflammatory activity (in words): compared with standard indomethacin; for Potency (anti-inflammatory): relative to indomethacin = 1.00
Description: The anti-inflammatory activity of the synthesized compounds (4a–n) was evaluated by the carrageenan-induced paw edema method. An oral dose of 10 mg/kg was used for compounds and compared with the standard. Anti-inflammatory activity was accessed through percentage inhibition after 2 and 4 h (Table 1).
Compounds produced were assessed for their anti-inflammatory activity using the carrageenan-induced hind paw edema method. The anti-inflammatory activity was carried out using Wistar albino rats of either sex (150–220 g) using a Digital Plethysmometer (Model No. 7140, UGO BASILE). The edema was induced by using 1% carrageenan solution. Indomethacin was used as a standard drug. The anti-inflammatory activity of the standard drug and tested compounds was determined at a dose of 10 mg/kg body weight. The animals were divided into groups containing six animals each and the initial paw volume of each rat was noted by the NaCl displacement method. One group was kept as control, one as standard, and the rest of the groups of compounds were to be tested. To the control group, 1% CMC solution was administered p.o. To the standard group, the standard drug was administered orally. To the test group, tested compounds were administered orally. After 60 min of the 1% CMC solution/standard drug/test compound administration, 0.1 ml of 1% (w/v) carrageenan was injected in the plantar region of the hind limb (right) of all the rats in each group including the control group. The paw volume was again measured after the time interval of 2 and 4 h. Using the following formula, inflammation was calculated as percentage inhibition for the test and reference compounds
(Final foot volume of control—final foot volume of std./test) × 100 / final foot volume of control)

[1] = system: acetic acid-induced writhing; test: acetic acid-induced writhing method (analgesic activity); type: in vivo, Swiss albino mice; settings: for inhibition in vivo at 10 mg/kg: Mus musculus, read-out: % Analgesic Activity; for Potency (analgesic): relative to indomethacin = 1.00, 10 mg/kg; for Mean with ± SEM: writhes counted for 15 min; for analgesic activity (in words): compared with standard indomethacin
Description: All the tested compounds and standard drugs are evaluated at 10 mg/kg oral dose.
The analgesic activity of the tested compounds was carried out by acetic acid-induced writhing method as given in the literature using Swiss albino mice of either sex (25–35 g). The writh were induced in the albino mice using an intraperitoneal injection of 1% acetic acid solution. The standard drug indomethacin and test compounds were evaluated at a concentration of 10 mg/kg of the body weight. The animals were divided into groups and each group consisted of six animals. One group was kept as control, one as standard, and other as test groups. To the control group, 0.1% CMC solution was administered p.o; to the standard group, the standard drug was administered orally, and to the test group, test compounds were administered orally. After 60 min of the 0.1% CMC solution/standard drug/tested compound administration, 0.1 ml of 1% (v/v) acetic acid solution in distilled water was injected intraperitoneally in all the mice in each group including the control group. The writhing (a contraction of the abdomen, turning of trunk, and extension of hind limbs) was counted after 5 min of acetic acid administration and were counted for a period of 15 min. The percentage of analgesic activity was calculated using the following formula.
(Mean wriths of control—mean wriths of std./test) / mean wriths of control) × 100

[2] = 2 h, 2 h, read-out: % Age Inhibition of Rat Paw Edema, 2 H
[3] = 4 h, 4 h, read-out: % Age Inhibition of Rat Paw Edema, 4 H

Row | Compound | melting point [°C] | inhibition in vivo at 10 mg/kg (Rat Paw Edema; [2]) [%] | inhibition in vivo at 10 mg/kg (Rat Paw Edema; [3]) [%] | anti-inflammatory activity (in words) (Rat Paw Edema) | Potency (anti-inflammatory) (Rat Paw Edema; 10 mg/kg) | inhibition in vivo at 10 mg/kg ([1]; oral dose 10 mg/kg, mean ± SEM) [%] | Potency (analgesic) [1] | Mean with ± SEM ([1]; oral dose 10 mg/kg) | % Age Inhibition of Rat Paw Edema, 4 H (Rat Paw Edema; 4 h, 10 mg/kg) [%] | anti-inflammatory activity (in words) (Rat Paw Edema; 10 mg/kg) | inhibition in vivo at 10 mg/kg ([1]; po) [%] | analgesic activity (in words) ([1]; oral dose 10 mg/kg)
1 | O=C1C(=NNc2nc(-c3cc4ccccc4oc3=O)cs2)c2ccccc2N1CNc1ccccc1 [Compound 4a, 3-{[4-(2-Oxo-2H-chromen-3-yl)-thiazol-2-yl]-hydrazono}-1-phenylaminomethyl-1,3-dihydro-indol-2-one] | 245 to 247 | 38.29 ± 0.016 | 5.57 ± 0.041 | negligible anti-inflammatory activity | 0.06 | 47.5 ± 0.707 | 0.64 | 17.00 ± 0.2582 | – | – | – | –
2 | O=C1C(=NNc2nc(-c3cc4ccccc4oc3=O)cs2)c2ccccc2N1CNc1ccc(F)cc1 [Compound 4b, 1-[(4-Fluoro-phenylamino)-methyl]-3-{[4-(2-oxo-2H-chromen-3-yl)-thiazol-2-yl]-hydrazono}-1,3-dihydro-indol-2-one] | 242 to 244 | 59.3 ± 0.73 | 45.81 ± 0.069 | – | 0.55 | 25.9 ± 0.58 | 0.35 | 24.00 ± 0.3651 | – | – | – | –
3 | O=C1C(=NNc2nc(-c3cc4ccccc4oc3=O)cs2)c2ccccc2N1CNc1ccc(Br)cc1 [Compound 4d, 1-[(4-Bromo-phenylamino)-methyl]-3-{[4-(2-oxo-2H-chromen-3-yl)-thiazol-2-yl]-hydrazono}-1,3-dihydro-indol-2-one] | 241 to 243 | 51.92 ± 0.337 | 6.98 ± 0.315 | negligible anti-inflammatory activity | 0.08 | 42.9 ± 0.71 | 0.58 | 18.50 ± 0.4282 | – | – | – | –
4 | O=C1C(=NNc2nc(-c3cc4ccccc4oc3=O)cs2)c2ccccc2N1CNc1ccccc1[N+](=O)[O-] [Compound 4e, 1-[(2-Nitro-phenylamino)-methyl]-3-{[4-(2-oxo-2H-chromen-3-yl)-thiazol-2-yl]-hydrazono}-1,3-dihydro-indol-2-one] | 244 to 246 | 62.24 ± 0.08 | 48.6 ± 0.09 | – | 0.59 | 47.9 ± 1 | 0.65 | 16.88 ± 0.222 | – | – | – | –
5 | O=C1C(=NNc2nc(-c3cc4ccccc4oc3=O)cs2)c2ccccc2N1CNc1ccc([N+](=O)[O-])cc1[N+](=O)[O-] [Compound 4g, 1-[(2,4-Dinitro-phenylamino)-methyl]-3-{[4-(2-oxo-2H-chromen-3-yl)-thiazol-2-yl]-hydrazono}-1,3-dihydro-indol-2-one] | 247 to 249 | 53.57 ± 0.16 | 77.9 | – | 0.94 | – | 0.51 | 20.09 ± 0.3561 | 77.94 ± 0.184 | good anti-inflammatory activity; also recorded: significant anti-inflammatory activity | 38 ± 1 | –
6 | O=C1C(=NNc2nc(-c3cc4ccccc4oc3=O)cs2)c2ccccc2N1CNn1cnnc1 [Compound 4h, 3-{[4-(2-Oxo-2H-chromen-3-yl)-thiazol-2-yl]-hydrazono}-1-([1,2,4]triazol-4-ylaminomethyl)-1,3-dihydro-indol-2-one] | 236 to 238 | 35.39 ± 0.273 | 64.69 ± 0.245 | – | 0.78 | 26.5 ± 0.317 | 0.35 | 23.83 ± 0.3073 | – | – | – | steep decrease in analgesic activity

Now from value to molecule, other results behind:

Row | melting point [°C] | Compound | inhibition in vivo at 10 mg/kg (Rat Paw Edema; [2]) [%] | inhibition in vivo at 10 mg/kg (Rat Paw Edema; [3]) [%] | anti-inflammatory activity (in words) (Rat Paw Edema) | Potency (anti-inflammatory) (Rat Paw Edema; 10 mg/kg) | inhibition in vivo at 10 mg/kg ([1]; oral dose 10 mg/kg, mean ± SEM) [%] | Potency (analgesic) [1] | Mean with ± SEM ([1]; oral dose 10 mg/kg) | % Age Inhibition of Rat Paw Edema, 4 H (Rat Paw Edema; 4 h, 10 mg/kg) [%] | anti-inflammatory activity (in words) (Rat Paw Edema; 10 mg/kg) | inhibition in vivo at 10 mg/kg ([1]; po) [%] | analgesic activity (in words) ([1]; oral dose 10 mg/kg)
7 | 237 to 239 | O=C1C(=NNc2nc(-c3cc4ccccc4oc3=O)cs2)c2ccccc2N1CNc1ccncc1 [Compound 4j, 3-{[4-(2-Oxo-2H-chromen-3-yl)-thiazol-2-yl]-hydrazono}-1-(pyridine-4-ylaminomethyl)-1,3-dihydro-indol-2-one] | 53.81 ± 0.12 | 77.9 | – | 0.94 | 47.14 ± 0.402 | 0.64 | 17.13 ± 0.539 | – | good anti-inflammatory activity; also recorded: significant anti-inflammatory activity | – | –
8 | 231 to 233 | O=C1C(=NNc2nc(-c3cc4ccccc4oc3=O)cs2)c2ccccc2N1CNc1cccnc1 [Compound 4k, 3-{[4-(2-Oxo-2H-chromen-3-yl)-thiazol-2-yl]-hydrazono}-1-(pyridine-3-ylaminomethyl)-1,3-dihydro-indol-2-one] | 38.09 ± 0.214 | 70.8 | significant anti-inflammatory activity | 0.86 | 7.96 ± 0.432 | 0.10 | 29.83 ± 0.3073 | 70.75 ± 0.165 | – | – | least analgesic activity
9 | 241 to 243 | O=C1C(=NNc2nc(-c3cc4ccccc4oc3=O)cs2)c2ccccc2N1CNc1ccc([N+](=O)[O-])cc1 [Compound 4l, 1-[(4-Nitro-phenylamino)-methyl]-3-{[4-(2-oxo-2H-chromen-3-yl)-thiazol-2-yl]-hydrazono}-1,3-dihydro-indol-2-one] | 54.76 ± 0.228 | 80.9 | – | 0.98 | 44.98 ± 0.336 | 0.61 | 17.83 ± 0.3079 | 80.94 ± 0.149 | good anti-inflammatory activity; also recorded: highest anti-inflammatory activity | – | –
10 | 244 to 246 | Cc1ccc(NCN2C(=O)C(=NNc3nc(-c4cc5ccccc5oc4=O)cs3)c3ccccc32)cc1 [Compound 4m, 3-{[4-(2-Oxo-2H-chromen-3-yl)-thiazol-2-yl]-hydrazono}-1-(p-tolylamino-methyl)-1,3-dihydro-indol-2-one] | 53.27 ± 0.183 | 78.4 | – | 0.95 | 32.6 ± 0.845 | 0.44 | 21.83 ± 0.2051 | 78.42 ±0.183 | good anti-inflammatory activity; also recorded: significant anti-inflammatory activity; also recorded: better anti-inflammatory activity | – | less analgesic activity

Source: paper PMC7179205, “An Improved Synthesis of Key Intermediate to the Formation of Selected Indolin-2-Ones Derivatives Incorporating Ultrasound and Deep Eutectic Solvent (DES) Blend of Techniques, for Some Biological Activities and Molecular Docking Studies” (Molecules, 2020)
